In one series the test system is Lewis rats. Put plainly: in vivo. The conditions noted are these: Lewis rats, single dose, 5 days observation.
Series [1] addresses T1, soluble recombinant human DPP-IV (Homo sapiens, UniProt P27487).
T1 construct: immunoglobulin kappa light chain secretion signal (pSecTag2-B) (N, cleaved yes); made in house; host or cells: 293T cells, transient transfection; unpurified culture supernatant used
In words: In vitro assay of enzymatic activity of recombinant soluble DPP-IV and inhibition by amino boronic dipeptides. Format: biochemical. The settings on record: assayed 3 minutes, 78 minutes and 16 hours after addition of Ala-Pro-AFC. The source says:
Production of soluble recombinant human DPP-IV. Based on information on the N-terminus of serum DPP-IV (15), a truncated DPP-IV was engineered in which a signal/leader sequence was joined to the residue in DPP-IV corresponding to the N-terminus of serum DPP-IV to allow secretion. The cDNA encoding the desired truncated human DPP-IV dimer enzyme was engineered into the mammalian secretion vector pSecTag2 (Cat# V900-20, InVitrogen Corporation). The vector, available in A, B or C versions, representing three possible phases for gene fusion, contained an immunoglobulin-kappa light chain secretion signal followed by a selection of restriction sites for gene insertion. The fusion required engineering a restriction site upstream of the chosen fusion amino acid in the 5′ end of the DPP-IV dimer enzyme nucleic acid in phase with the chosen restriction site (Sfi I) in the vector secretion sequence. The chosen fusion amino acid in the 5′ end of the DPP-IV (Ser39) was 3′ of the trans-membrane anchoring domain. The pSecTag2 version B and its Sfi I restriction site was chosen for the fusion because it minimizes the additional N-terminal, vector-encoded residues in the mature secreted protein.
Construction of the fusion was as follows. First, total RNA was isolated from the Caco-2 colorectal carcinoma cell line (ATCC HTB-37) by standard Trizol/phenol/chloroform methodology. The purified RNA (approx. 2.5 μg in a 20 μl reaction) was used to make cDNA using oligo-dT primer and a commercial reverse transcription (RT) kit (InVitrogen). […] The following thermal cycler program was used: 94° C. for 45 sec. initial denaturation, then 30 cycles of 94° C., 10 sec.; 48° C., 6 sec.; 60° C., 4 min; followed by 5-min. extension at 72° C. after cycling.
DNA from the plasmid encoding DPP-IV dimer enzyme was prepared on an approximately 400 μg scale from overnight 30 ml cultures in Luria broth with 100 μg ampicillin per ml using a commercial kit (Qiagen Maxiprep Kit).
In vitro assay of enzmatic activity ofrecombinant soluble DPP-IV and inhibition by amino boronic dipeptides. The assay reaction mixture consisted of 135 μl 50 mM HEPES/Na buffer pH 7.6, 140 mM NaCl, 10-15 gl enzyme-containing culture supernatant, dipeptide substrate Ala-Pro-(7-amino-4-trifluoromethyl coumarin) (Ala-Pro-AFC; Enzyme System Products, Dublin, Calif.) at typically 0.1-1 mM added from a 100 or 400 mM stock in dimethyl formamide. The reaction mixture was incubated at room temperature, and production of the fluorescent AFC product was measured in a fluorometer (excitation, 400 nm; emission 505 nm), either by continuous monitoring or after termination with a one to one-tenth volume of 1 -M sodium acetate, pH 4.5. Fluorometric reading were made with a Molecular Dynamics Spectra Max GeminiXS capable of reading 96-well microtiter plates. The inhibitory activity of amino boronic dipeptides was investigated by preincubation of assay reaction mixtures with varying concentrations of each compound for 10 minutes before the addition of the substrate Ala-Pro-AFC.

A further series relates to serum KC/CXCL1. In words: Serum KC/CXCL1 levels in vivo (ELISA). More on the design: species or system BALB/c mice. The conditions noted are these: 0.2-200 μg/mouse oral, 2 hours. On the procedure:
Assay ofserum DPP-IV inhibition and KC/CXCL1 levels in vivo. […] Each mouse received a single administration of each amino boronic dipeptide or saline, and blood samples were withdrawn from mice 2 hours later.
Serum concentration of mouse KC/CXCL1 was determined by Quantikine enzyme-linked immunosorbent assay (ELISA; R&D Systems, Minneapolis, Minn.) according to the manufacturer's instructions. ELISA was performed in duplicate for each sample.

Series [2] deals with human bone marrow stromal cells. In words: G-CSF supernatant levels in human bone marrow stromal cell cultures. The settings on record: 1 to 10^4 nM, 24 hours. It is filed as cell-based. On the procedure: Human bone marrow stromal cell cultures. Samples of normal human bone marrow were purchased from Cambrex Bioproducts (Walkersville, Md.) and mononuclear cells were purified over Ficoll-Hypaque (Nycomed, Oslo, Norway). Human stromal layers were established by seeding 4×10^7 mononuclear cells into T75 flasks (Corning) containing 20 ml MyeloCult medium (Stem Cell Technologies, Vancouver, BC) supplemented with 10^−6 M hydrocortisone (Sigma) and incubation at 37° C. in 100% humidified 5% CO2 in air. After one week, half the medium was exchanged, and the cultures incubated for approximately one week more, after which time, a semi-confluent cell layer was formed. Stromal cells were harvested by trypsinization using standard technique and 10^5 cells/well were seeded in multi-well plates in 1 ml of fully supplemented DMEM (InVitrogen, Carlsbad, Calif.). […] Multiwell cultures without the addition of amino boronic dipeptides served as controls. […] Supernatant concentrations of human G-CSF were determined by Quantikine enzyme-linked immunosorbent assay (ELISA; R&D Systems, Minneapolis, Minn.) according to the manufacturer's instructions. […] The effect of each amino boronic dipeptide on the level of supernatant G-CSF was determined by calculating a stimulation index (SI): SI=(mean G-CSF concentration in culture with amino boronic dipeptide)/(mean G-CSF concentration in control culture).

The test system of series [3] is Zucker Diabetic Fatty (ZDF) rats. In words: 6 week glycemic control study in Zucker Diabetic Fatty rats. It is filed as in vivo. The settings on record: Metformin group, day 14-15. How it is done: The design of the 6 week long study is depicted in FIG. 8. 60 male Zucker Diabetic Fatty (ZDF) rats (5 weeks of age) were obtained from Charles River Labs. The animals are housed singly and allowed to acclimatize for 1 week before the initiation of the study. 24-hour food intake and body weight was measured gravimetrically twice weekly from the start of housing. HbA1C levels were measured at Day 0, 7, 14, 28 and 46. OGTT was administered on Day 2-3, 15 minutes after the administration of the drugs. OGTT was administered again at the end of the study but in this case, drugs were given 15 hours prior to the OGTT. The 24-hour glucose profile was monitored at day 14-15 of the study.
The insulin sensitivity index was calculated at the termination of the study according to the method described by Matsuda and DeFronzo (Diabetes Care. 1999 Sep.;22(9):1462-70).

The next series concerns the target T2, serum DPP-IV (Rattus norvegicus, UniProt P14740).
T2 construct: from tissue; host or cells: serum of Lewis rats dosed with the compounds
In words: Serum DPP-IV inhibition in Lewis rats. Format: in vivo. The conditions noted are these: single oral administration, 2 hours. On the procedure: Assay of serum DPP-IV inhibition in vivo. […] DPP-IV activity was determined by reaction of 10 μl serum with 90 μl of 0.11 mM Ala-Pro-AFC (Enzyme System Products, Dublin, Calif.) in 50 mM HEPES/Na buffer pH 7.6, 140 mM NaCl.

The next series deals with DPP-IV (Homo sapiens, UniProt P27487). The conditions noted are these: in vivo; cited from earlier work.
DPP-IV, sequence (P27487 whole entry, species assumed): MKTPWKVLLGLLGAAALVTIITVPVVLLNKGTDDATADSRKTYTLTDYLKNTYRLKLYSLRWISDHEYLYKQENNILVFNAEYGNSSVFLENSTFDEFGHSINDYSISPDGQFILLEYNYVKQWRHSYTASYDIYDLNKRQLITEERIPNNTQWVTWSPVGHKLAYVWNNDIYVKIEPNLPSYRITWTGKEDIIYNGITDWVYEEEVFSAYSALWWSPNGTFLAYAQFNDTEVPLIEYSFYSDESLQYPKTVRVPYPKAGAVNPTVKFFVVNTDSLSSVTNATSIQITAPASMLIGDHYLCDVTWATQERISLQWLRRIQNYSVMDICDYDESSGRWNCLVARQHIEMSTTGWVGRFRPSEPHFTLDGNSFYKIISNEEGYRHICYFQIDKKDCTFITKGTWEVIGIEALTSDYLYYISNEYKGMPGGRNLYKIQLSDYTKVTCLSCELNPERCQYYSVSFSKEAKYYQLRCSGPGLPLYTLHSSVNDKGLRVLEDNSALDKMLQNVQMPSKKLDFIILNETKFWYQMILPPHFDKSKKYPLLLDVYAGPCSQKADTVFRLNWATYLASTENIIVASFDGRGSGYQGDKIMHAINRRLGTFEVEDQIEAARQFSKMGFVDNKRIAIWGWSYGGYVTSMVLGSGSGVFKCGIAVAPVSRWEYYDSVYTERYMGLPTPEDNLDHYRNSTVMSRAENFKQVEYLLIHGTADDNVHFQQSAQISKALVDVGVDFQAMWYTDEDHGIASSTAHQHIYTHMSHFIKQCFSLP

T1 sequence (P27487 39-766 limits assumed): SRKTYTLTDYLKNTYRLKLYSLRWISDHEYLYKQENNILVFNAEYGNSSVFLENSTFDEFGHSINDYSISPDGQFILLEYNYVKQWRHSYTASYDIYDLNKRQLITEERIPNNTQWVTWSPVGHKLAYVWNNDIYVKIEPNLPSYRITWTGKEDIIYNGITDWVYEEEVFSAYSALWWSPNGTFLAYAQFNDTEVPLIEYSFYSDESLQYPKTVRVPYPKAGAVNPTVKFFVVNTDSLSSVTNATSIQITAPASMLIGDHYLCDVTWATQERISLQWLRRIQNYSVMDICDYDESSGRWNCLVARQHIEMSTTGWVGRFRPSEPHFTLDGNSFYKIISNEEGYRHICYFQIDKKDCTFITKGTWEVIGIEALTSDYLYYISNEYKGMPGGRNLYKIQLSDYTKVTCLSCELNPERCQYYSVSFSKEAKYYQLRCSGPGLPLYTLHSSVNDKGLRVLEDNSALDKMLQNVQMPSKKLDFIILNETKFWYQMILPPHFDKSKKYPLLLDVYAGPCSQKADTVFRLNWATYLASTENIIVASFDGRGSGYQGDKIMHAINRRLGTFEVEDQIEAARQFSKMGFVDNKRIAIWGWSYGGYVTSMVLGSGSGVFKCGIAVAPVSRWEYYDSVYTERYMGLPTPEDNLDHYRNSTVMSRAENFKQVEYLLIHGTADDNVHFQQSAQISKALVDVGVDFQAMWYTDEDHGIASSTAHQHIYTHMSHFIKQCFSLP
T2 sequence (P14740 37-767 limits assumed): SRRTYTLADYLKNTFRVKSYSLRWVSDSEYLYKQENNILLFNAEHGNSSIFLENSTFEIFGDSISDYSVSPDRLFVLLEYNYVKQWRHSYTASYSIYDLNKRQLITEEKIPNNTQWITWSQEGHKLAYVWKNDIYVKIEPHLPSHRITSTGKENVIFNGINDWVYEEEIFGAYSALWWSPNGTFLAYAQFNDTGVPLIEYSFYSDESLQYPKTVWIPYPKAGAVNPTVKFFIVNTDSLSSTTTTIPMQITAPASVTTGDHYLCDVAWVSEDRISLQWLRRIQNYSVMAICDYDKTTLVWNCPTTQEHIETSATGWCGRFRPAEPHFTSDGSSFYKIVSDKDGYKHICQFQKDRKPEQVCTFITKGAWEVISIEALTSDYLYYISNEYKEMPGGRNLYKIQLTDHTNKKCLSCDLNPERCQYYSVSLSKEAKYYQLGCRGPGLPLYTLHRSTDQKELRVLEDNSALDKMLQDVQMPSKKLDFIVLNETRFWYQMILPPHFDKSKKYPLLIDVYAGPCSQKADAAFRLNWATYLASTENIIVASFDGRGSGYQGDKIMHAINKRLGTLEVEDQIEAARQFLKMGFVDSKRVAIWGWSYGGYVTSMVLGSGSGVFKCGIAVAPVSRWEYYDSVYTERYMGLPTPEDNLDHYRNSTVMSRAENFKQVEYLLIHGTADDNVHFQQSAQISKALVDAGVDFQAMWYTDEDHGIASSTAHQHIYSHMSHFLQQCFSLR

As for `C[C@H](N)C(=O)N1CCC[C@H]1B(O)O` [Ala-boroPro], the “MTD (maximum tolerated dose)” value with Lewis rats is “≧2,000 μg/kg”.

`NC(N)=NCCC[C@H](N)C(=O)N1CCC[C@H]1B(O)O` [Arg-boroPro]: the “MTD (maximum tolerated dose)” value in the series on Lewis rats is “≧2,000 μg/kg”. In addition, the “persistence of DPP-IV inhibition after preincubation” value (“persistence of DPP-IV inhibition” for short) in series [1] is “more rapidly reversible”.

Take `NC(=O)CC[C@H](N)C(=O)N1CCC[C@H]1B(O)O` [Gln-boroPro]: in the series on Lewis rats, the “MTD (maximum tolerated dose)” value was “≧800 μg/kg”.

`CC[C@H](C)[C@H](N)C(=O)N1CCC[C@H]1B(O)O` [Ile-boroPro]: the “serum levels of KC/CXCL1” value with serum KC/CXCL1 is reported as “stimulate increased serum levels of KC/CXCL1 in a dose-dependent manner”. In addition, the “supernatant G-CSF level (stimulation index)” value in series [2] is reported as “stimulate increased levels of G-CSF”. The “MTD (maximum tolerated dose)” value in the series on Lewis rats amounted to 120 µg/kg. Besides, the “persistence of DPP-IV inhibition” value in series [1] was “sustained DPP-IV inhibition”.

As to `CC(C)C[C@H](N)C(=O)N1CCC[C@H]1B(O)O` [Leu-boroPro], the “serum levels of KC/CXCL1” value in the series with serum KC/CXCL1 is on record as “stimulate increased serum levels of KC/CXCL1 in a dose-dependent manner”. The “supernatant G-CSF level (stimulation index)” value in series [2] is on record as “stimulate increased levels of G-CSF”. The “MTD (maximum tolerated dose)” value in the series with Lewis rats was determined as 200 µg/kg. Further, the “persistence of DPP-IV inhibition” value in series [1] was “more rapidly reversible”.

On to `NCCCC[C@H](N)C(=O)N1CCC[C@H]1B(O)O` [Lys-boroPro], for which, in the series on Lewis rats, the “MTD (maximum tolerated dose)” value is recorded as “≧2,000 μg/kg”. For the same molecule, the “persistence of DPP-IV inhibition” value in series [1] is recorded as “more rapidly reversible”.

As for `CSCC[C@H](N)C(=O)N1CCC[C@H]1B(O)O` [Met-boroPro], in the series with Lewis rats, the “MTD (maximum tolerated dose)” value was determined as 160 µg/kg.

Take `CN(C)C(=N)N=C(N)N` [Metformin, reference compound]: the “AUC of 24 hour glucose profile” value in series [3] is “achieve significance”.

Take `N[C@@H](Cc1ccccc1)C(=O)N1CCC[C@H]1B(O)O` [Phe-boroPro]: in series [1], the “persistence of DPP-IV inhibition” value is listed as “more rapidly reversible”.

With `O=C(C1CCCN1)N1CCCC1B(O)O` (stereo not shown) [Pro-boroPro], the “MTD (maximum tolerated dose)” value with Lewis rats is recorded as “≧2,000 μg/kg”. Besides, the “persistence of DPP-IV inhibition” value in series [1] is given as “more rapidly reversible”.

`N[C@@H](CO)C(=O)N1CCC[C@H]1B(O)O` [Ser-boroPro]: the “MTD (maximum tolerated dose)” value in the series with Lewis rats is 4,000 μg/kg.

Regarding `C[C@@H](O)[C@H](N)C(=O)N1CCC[C@H]1B(O)O` [Thr-boroPro], the “MTD (maximum tolerated dose)” value in the series with Lewis rats is 800 µg/kg.

With `CC(C)[C@H](N)C(=O)N1CCC[C@H]1B(O)O` [Val-boroPro], on serum DPP-IV, the “ID50 (dose causing 50% reduction in serum DPP-IV activity)” value is 0.009 mg/kg. For the same molecule, in the series on serum KC/CXCL1, the “serum levels of KC/CXCL1” value is on record as “stimulate increased serum levels of KC/CXCL1 in a dose-dependent manner”. The “MTD (maximum tolerated dose)” value in the series on Lewis rats is 20 µg/kg.

gastric inhibitory protein [GIP]: the “t1/2 of N-terminal degradation” value with DPP-IV was roughly 1 min.

Values taken from patent US20060094693A1, “Methods and compositions for treating glucose-associated conditions, metabolic syndrome, dyslipidemias and other conditions” (Point Therapeutics, Inc., priority 2004, published 2006).
